Data on 11 molecules can be found in patent publication US10047081B2, “BACE1 inhibitors” (Hoffmann-La Roche Inc., priority 2015, dated 2018).

The target in test [1] is T1, BACE1 (Homo sapiens, UniProt P56817).
T1 construct: endogenous in cells; host or cells: HEK293 APP cells
Briefly: Cellular Aβ-lowering assay (Abeta 40 AlphaLISA, HEK293 APP cells). The format is cell-based. As to conditions: 18-20 hrs incubation, Aβ 40 in culture supernatant, read-out: BACE1 cell act. Aβ40 IC50. How it is done: Cellular Aβ-Lowering Assay:
The Abeta 40 AlphaLISA Assay can be used. The HEK293 APP cells were seeded in 96 well Microtiter plates in cell culture medium (Iscove's, plus 10% (v/v) fetal bovine serum, penicillin/streptomycin) to about 80% confluency and the compounds were added at a 3× concentration in ⅓ volume of culture medium (final DMSO concentration was kept at 1% v/v). After 18-20 hrs incubation at 37° C. and 5% CO2 in a humidified incubator, the culture supernatants were harvested for the determination of Aβ 40 concentrations using Perkin-Elmer Human Amyloid beta 1-40 (high specificity) Kit (Cat#AL275C).
In a Perkin-Elmer White Optiplate-384 (Cat#6007290), 2 ul culture supernatants were combined with 2 μl of a 10× AlphaLISA Anti-hAβAcceptor beads + Biotinylated Antibody Anti-Aβ 1-40 Mix (50 μg/mL/5 nM). After 1 hour room temperature incubation, 16 μl of a 1.25× preparation of Streptavidin (SA) Donor beads (25 μg/mL) were added and incubated for 30 minutes in the Dark. Light Emission at 615 nm was then recorded using EnVision-Alpha Reader. Levels of Aβ 40 in the culture supernatants were calculated as percentage of maximum signal (cells treated with 1% DMSO without inhibitor). The IC50 values were calculated using the Excel XLfit software.

Test [2] concerns the target T2, recombinant human cathepsin E (Homo sapiens, UniProt P14091).
T2 construct: purchased R&D Systems
T2 sequence (P14091 54-396): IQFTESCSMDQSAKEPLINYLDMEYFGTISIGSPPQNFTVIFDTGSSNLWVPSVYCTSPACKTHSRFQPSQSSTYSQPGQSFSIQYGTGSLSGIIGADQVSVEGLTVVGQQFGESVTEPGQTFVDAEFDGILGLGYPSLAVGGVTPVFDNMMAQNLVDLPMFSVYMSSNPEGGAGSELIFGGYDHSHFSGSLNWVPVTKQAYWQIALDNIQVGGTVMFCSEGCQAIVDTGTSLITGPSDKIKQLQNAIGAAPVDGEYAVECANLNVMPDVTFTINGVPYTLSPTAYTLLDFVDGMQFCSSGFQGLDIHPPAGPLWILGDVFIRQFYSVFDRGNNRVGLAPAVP
Briefly: Cathepsin E fluorescent substrate kinetic assay. The format is biochemical. As to conditions: pH 4.5, substrate MR121-CKLVFFAEDW
The source says: (§1) Cathepsin D and Cathepsin E Fluorescent Substrate Kinetic Assays
(§2) The MR121 fluorescence assays described below are based on the fact that MR121 forms a non-fluorescent ground state complex with tryptophan. In solution this formation occurs at millimolar concentrations of tryptophan. The mechanism can be used to design a generic biochemical assay for proteases. A substrate peptide is labeled at the N-terminus with tryptophan and at the C-terminus with the fluorophore MR121 (for cathepsin D the 10 amino acid peptide WTSVLMAAPC-MR121 was used; for cathepsin E, MR121-CKLVFFAEDW was used). In absence of protease activity, the substrates remain intact and the MR121 fluorescence is reduced by the high local Trp-concentration. If the substrates are cleaved by the enzymes the MR121 fluorescence is recovered.
(§3) The fluorescent substrate cathepsin D and cathepsin E kinetic assays were performed at room temperature in 384-well microtiter plates (black with clear flat bottom, non-binding surface plates from Corning) in a final volume of 51 μl. The test compounds were serially diluted in DMSO (15 concentrations, ⅓ dilution steps) and 1 μl of diluted compounds were mixed for 10 min with 40 μl of cathepsin D (from human liver, Calbiochem) diluted in assay buffer (100 mM sodium acetate, 0.05% BSA, pH 5.5; final concentration:200 nM) or with 40 μl of recombinant human cathepsin E (R&D Systems) diluted in assay buffer (100 mM sodium acetate, 0.05% BSA, pH 4.5; final concentration:0.01 nM). After addition of 10 μl of the cathepsin D substrate WTSVLMAAPC-MR121 diluted in cathepsin D assay buffer (final concentration:300 nM) or 10 μl of the cathepsin E substrate MR121-CKLVFFAEDW diluted in cathepsin E assay buffer (final concentration:300 nM), the plates were strongly shaken for 2 minutes. The enzymatic reaction was followed in a plate: vision reader (Perkin Elmer) (excitation wavelength:630 nm; emission:695 nm) for at least 30 minutes in a kinetic measurement detecting an increase of MR121 fluorescence during the reaction time. The slope in the linear range of the kinetic was calculated and the IC50 of the test compounds were determined using a four parameter equation for curve fitting.

Test [3] has as its target T3, cathepsin D (from human liver) (Homo sapiens, UniProt P07339).
T3 construct: cathepsin D (from human liver, Calbiochem) diluted in assay buffer; purchased Calbiochem; host or cells: human liver
Put plainly: Cathepsin D fluorescent substrate kinetic assay. The format is biochemical. As to conditions: pH 5.5, substrate WTSVLMAAPC-MR121.
Excerpt: as §1, §2, §3

In test [4] the target is T4, CYP2D6 (Homo sapiens, UniProt P10635).
T4 construct: 0.2 mg/ml pooled human liver microsomes; from tissue; host or cells: pooled human liver microsomes
T4 sequence (P10635 whole entry): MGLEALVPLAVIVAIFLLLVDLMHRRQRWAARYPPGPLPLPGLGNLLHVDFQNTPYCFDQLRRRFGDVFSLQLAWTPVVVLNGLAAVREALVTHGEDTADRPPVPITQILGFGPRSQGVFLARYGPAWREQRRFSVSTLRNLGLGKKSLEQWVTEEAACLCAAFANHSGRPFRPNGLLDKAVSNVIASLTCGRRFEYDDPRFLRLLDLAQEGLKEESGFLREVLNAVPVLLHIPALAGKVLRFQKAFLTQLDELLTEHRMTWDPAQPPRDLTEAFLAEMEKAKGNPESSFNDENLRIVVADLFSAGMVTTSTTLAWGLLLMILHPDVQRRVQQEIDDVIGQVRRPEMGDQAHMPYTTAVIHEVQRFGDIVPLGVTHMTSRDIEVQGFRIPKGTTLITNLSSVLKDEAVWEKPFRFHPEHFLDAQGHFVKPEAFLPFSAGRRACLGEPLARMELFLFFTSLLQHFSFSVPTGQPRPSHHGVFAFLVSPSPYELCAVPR
Put plainly: CYP inhibition assay, human liver microsomes. The format is in vitro ADME. How it is done: (§4) Inhibition of cytochromes P450 (CYPs) 2C9, 2D6 and 3A4 was assessed using human liver microsomes and CYP-selective substrate metabolism reactions. 50 μl incubations were made up containing (finally) 0.2 mg/ml pooled human liver microsomes, 5 μM substrate (diclofenac for CYP2C9 [4′hydroxylase], dextromethorphan for CYP2D6 [O-demethylase] or midazolam for CYP3A4 [1′hydroxylase]), 0.25 μL DMSO containing test inhibitor and NADPH regenerating system. Test inhibitor concentrations of 50, 16.7, 5.6, 1.9, 0.6 and 0.2 μM were assessed in singlicate. Incubations were prewarmed to 37° C. for 10 minutes before initiation by addition of NADPH regenerating system. Incubations were quenched after 5 minutes (20 minutes for dextromethorphan) by addition of 50 μl cold acetonitrile containing 20 ng/ml 4-OH-diclofenac-13C6, 20 ng/mL dextrorphan-D3 and 20 ng/mL 1-OH-midazolam-D4. Quenched incubates were stored at −20° C. for at least 1 hour before centrifugation (20,000× g, 20 minutes). Supernatants were removed and diluted 1:1 with water prior to analysis using a RapidFire sample injector system and API4000 mass spectrometer. Peak areas for substrate, metabolite and stable-labelled metabolite standard were determined using MS/MS. The peak area ratios between the metabolite generated by the enzymatic reaction and the internal standard were used in subsequent calculations. The percentage of (DMSO) control activity was calculated for each incubate and IC50 values estimated by non-linear regression. Sulfaphenazole, quinidine or ketoconazole were tested in each CYP2C9, CYP2D6 or CYP3A4 inhibition experiment, respectively, to ensure assay sensitivity and reproducibility. (Validated assays for human cytochrome P450 activities, R. L. Walsky and R. S. Obach, Drug Metabolism and Disposition 32: 647-660, 2004. and S. Fowler and H. Zhang, The AAPS Journal, Vol. 10, No. 2, 410-424, 2008)
(In general: Liver microsomes are a subcellular fraction often used to study metabolism.)

The target of test [5] is T5, CYP2C9 (Homo sapiens, UniProt P11712).
T5 construct: 0.2 mg/ml pooled human liver microsomes; from tissue; host or cells: pooled human liver microsomes
T5 sequence (P11712 whole entry): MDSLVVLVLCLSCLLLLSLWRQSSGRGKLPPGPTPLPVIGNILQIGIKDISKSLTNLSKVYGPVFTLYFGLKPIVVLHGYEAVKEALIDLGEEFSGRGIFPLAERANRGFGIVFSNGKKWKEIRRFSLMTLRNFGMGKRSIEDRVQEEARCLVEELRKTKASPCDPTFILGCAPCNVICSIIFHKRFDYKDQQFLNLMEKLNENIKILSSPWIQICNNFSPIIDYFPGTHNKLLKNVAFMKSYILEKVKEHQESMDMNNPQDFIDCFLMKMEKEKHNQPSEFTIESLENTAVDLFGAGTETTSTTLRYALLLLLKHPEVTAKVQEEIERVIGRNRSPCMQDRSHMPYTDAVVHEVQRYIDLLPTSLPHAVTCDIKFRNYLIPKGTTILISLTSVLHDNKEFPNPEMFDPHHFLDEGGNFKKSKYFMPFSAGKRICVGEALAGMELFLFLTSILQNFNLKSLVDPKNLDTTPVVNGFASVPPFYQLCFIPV
Briefly: CYP inhibition assay, human liver microsomes. Type of test: in vitro ADME. How it is done: as §4

In test [6] the target is T6, CYP3A4 (Homo sapiens, UniProt P08684).
T6 construct: 0.2 mg/ml pooled human liver microsomes; from tissue; host or cells: pooled human liver microsomes
T6 sequence (P08684 whole entry): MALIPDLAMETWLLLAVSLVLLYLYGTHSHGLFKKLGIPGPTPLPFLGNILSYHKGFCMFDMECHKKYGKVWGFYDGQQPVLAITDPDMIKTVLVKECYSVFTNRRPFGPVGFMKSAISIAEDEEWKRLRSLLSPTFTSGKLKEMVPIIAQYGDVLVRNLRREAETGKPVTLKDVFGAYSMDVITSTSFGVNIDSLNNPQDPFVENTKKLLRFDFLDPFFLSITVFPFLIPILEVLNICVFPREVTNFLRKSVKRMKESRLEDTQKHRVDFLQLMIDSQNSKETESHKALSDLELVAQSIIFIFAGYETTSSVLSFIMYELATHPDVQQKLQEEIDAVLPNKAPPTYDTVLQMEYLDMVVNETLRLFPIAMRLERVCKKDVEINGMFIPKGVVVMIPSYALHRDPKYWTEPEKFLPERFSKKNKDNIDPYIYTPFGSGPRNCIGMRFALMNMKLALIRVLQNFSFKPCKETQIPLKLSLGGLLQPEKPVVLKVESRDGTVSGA
Briefly: CYP inhibition assay, human liver microsomes. Type of test: in vitro ADME. How it is done:
as §4

Where only a bound is given, the exact number is not on record here.

T1 sequence (P56817 46-501): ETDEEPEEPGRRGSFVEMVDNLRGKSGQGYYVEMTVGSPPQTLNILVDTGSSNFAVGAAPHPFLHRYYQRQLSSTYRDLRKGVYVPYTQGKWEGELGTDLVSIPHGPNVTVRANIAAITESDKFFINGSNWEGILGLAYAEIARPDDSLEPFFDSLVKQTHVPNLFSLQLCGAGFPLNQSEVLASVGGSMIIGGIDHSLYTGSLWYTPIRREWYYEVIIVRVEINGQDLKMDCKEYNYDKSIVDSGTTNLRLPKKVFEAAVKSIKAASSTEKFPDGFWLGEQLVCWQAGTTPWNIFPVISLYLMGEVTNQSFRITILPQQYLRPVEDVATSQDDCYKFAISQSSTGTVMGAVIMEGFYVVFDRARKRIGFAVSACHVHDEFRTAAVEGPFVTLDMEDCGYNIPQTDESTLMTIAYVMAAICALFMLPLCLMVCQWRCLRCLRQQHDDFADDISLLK
T3 sequence (P07339 65-162 limits assumed): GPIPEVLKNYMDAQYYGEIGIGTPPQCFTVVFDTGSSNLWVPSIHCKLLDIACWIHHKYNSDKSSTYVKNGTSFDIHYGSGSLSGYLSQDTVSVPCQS
T3 sequence (P07339 169-412 limits assumed): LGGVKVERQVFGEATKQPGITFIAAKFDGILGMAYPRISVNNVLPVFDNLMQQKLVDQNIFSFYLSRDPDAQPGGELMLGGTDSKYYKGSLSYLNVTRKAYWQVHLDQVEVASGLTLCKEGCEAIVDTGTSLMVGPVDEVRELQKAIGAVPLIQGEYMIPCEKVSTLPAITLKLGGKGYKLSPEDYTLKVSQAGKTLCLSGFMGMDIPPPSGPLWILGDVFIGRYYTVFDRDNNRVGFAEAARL

What is called IC50 is the concentration that inhibits the measured activity by half. On to `CN=[S@@]1(=O)C[C@@](C)(c2cc(-c3cc(-c4cnc(OC)cn4)no3)ccc2F)N=C(N)C12CCCC2` [Example 27, (6R,8R)-10-amino-8-(2-fluoro-5-(3-(5-methoxypyrazin-2-yl)isoxazol-5-yl)phenyl)-8-methyl-6-(methylimino)-6-thia-9-azaspiro[4.5]dec-9-ene 6-oxide 2,2,2-trifluoroacetate], for which, in test [1], the IC50 amounted to 139 nM. For `CN=[S@@]1(=O)C[C@@](C)(c2cc(-c3cc(-c4ncc(Cl)cn4)no3)ccc2F)N=C(N)C12CCCC2` [Example 28, (6R,8R)-10-amino-8-(5-(3-(5-chloropyrimidin-2-yl)isoxazol-5-yl)-2-fluorophenyl)-8-methyl-6-(methylimino)-6-thia-9-azaspiro[4.5]dec-9-ene 6-oxide 2,2,2-trifluoroacetate], the concentration for half-maximal inhibition (IC50) was 7000 nM in test [2]; 16000 nM in test [3]; 7 nM in test [1]; above 10000 nM in test [4]; above 10000 nM in test [5]; above 10000 nM in test [6]. `CN=[S@@]1(=O)C[C@@](C)(c2cc(-c3cc(-c4ncc(OC)cn4)no3)ccc2F)N=C(N)C12CCCC2` [Example 29, (6R,8R)-10-amino-8-(2-fluoro-5-(3-(5-methoxypyrimidin-2-yl)isoxazol-5-yl)phenyl)-8-methyl-6-(methylimino)-6-thia-9-azaspiro[4.5]dec-9-ene 6-oxide 2,2,2-trifluoroacetate]: the IC50 in test [1] turned out to be 20 nM.

On to `CN=[S@@]1(=O)C[C@@](C)(c2cc(-c3cc(-c4cnc(OCC(F)F)cn4)no3)ccc2F)N=C(N)C12CCCC2` [Example 30, (6R,8R)-10-amino-8-(5-(3-(5-(2,2-difluoroethoxy)pyrazin-2-yl)isoxazol-5-yl)-2-fluorophenyl)-8-methyl-6-(methylimino)-6-thia-9-azaspiro[4.5]dec-9-ene 6-oxide], for which the IC50 in test [1] turned out to be 104 nM. `COc1cnc(-c2cc(-c3ccc(F)c([C@]4(C)C[S@](=O)(=NC5CC5)C(C)(C)C(N)=N4)c3)on2)cn1` [Example 33, (1R,3R)-5-amino-1-(cyclopropylimino)-3-(2-fluoro-5-(3-(5-methoxypyrazin-2-yl)isoxazol-5-yl)phenyl)-3,6,6-trimethyl-3,6-dihydro-2H-1,4-thiazine 1-oxide]: in test [1], the half-maximal inhibitory concentration (IC50) is 92 nM. Regarding `CC1(C)C(N)=N[C@](C)(c2cc(-c3cc(-c4ncc(Cl)cn4)no3)ccc2F)C[S@]1(=O)=NC1CC1` [Example 34, (1R,3R)-3-[5-[3-(5-chloropyrimidin-2-yl)isoxazol-5-yl]-2-fluoro-phenyl]-1-cyclopropylimino-3,6,6-trimethyl-1-oxo-2H-1,4-thiazin-5-amine 2,2,2-trifluoroacetate], the IC50 in test [1] is 13 nM. In the case of `CC1(C)C(N)=N[C@](C)(c2cc(-c3cc(-c4ncc(Cl)cn4)no3)ccc2F)C[S@@]1(=O)=NC1CC1` [Example 36, (1S,3R)-5-amino-3-(5-(3-(5-chloropyrimidin-2-yl)isoxazol-5-yl)-2-fluorophenyl)-1-(cyclopropylimino)-3,6,6-trimethyl-3,6-dihydro-2H-1,4-thiazine 1-oxide 2,2,2-trifluoroacetate], the half-inhibitory concentration (IC50) in test [1] was 7 nM. Same read-out and setting: in the case of `COc1cnc(-c2cc(-c3ccc(F)c([C@]4(C)C[S@@](=O)(=NCC(F)(F)F)C(C)(C)C(N)=N4)c3)on2)cn1` [Example 37, (1S,3R)-5-amino-3-(2-fluoro-5-(3-(5-methoxypyrazin-2-yl)isoxazol-5-yl)phenyl)-3,6,6-trimethyl-1-((2,2,2-trifluoroethyl)imino)-3,6-dihydro-2H-1,4-thiazine 1-oxide 2,2,2-trifluoroacetate] it was 6 nM. Regarding `CC1(C)C(N)=N[C@](C)(c2cc(-c3cc(-c4ncc(Cl)cn4)no3)ccc2F)C[S@@]1(=O)=NCC(F)(F)F` [Example 38, (1S,3R)-5-amino-3-(5-(3-(5-chloropyrimidin-2-yl)isoxazol-5-yl)-2-fluorophenyl)-3,6,6-trimethyl-1-((2,2,2-trifluoroethyl)imino)-3,6-dihydro-2H-1,4-thiazine 1-oxide 2,2,2-trifluoroacetate], the IC50 in test [1] was found to be 13 nM.

Turning to `COc1cnc(-c2cc(-c3ccc(F)c([C@]4(C)C[S@](=O)(=NCC(F)(F)F)C(C)(C)C(N)=N4)c3)on2)cn1` [Example 39, (1R,3R)-5-amino-3-(2-fluoro-5-(3-(5-methoxypyrazin-2-yl)isoxazol-5-yl)phenyl)-3,6,6-trimethyl-1-((2,2,2-trifluoroethyl)imino)-3,6-dihydro-2H-1,4-thiazine 1-oxide 2,2,2-trifluoroacetate], in test [1], the IC50 turned out to be 232 nM.

Take `CC1(C)C(N)=N[C@](C)(c2cc(-c3cc(-c4ncc(Cl)cn4)no3)ccc2F)C[S@]1(=O)=NCC(F)(F)F` [Example 40, (1R,3R)-5-amino-3-(5-(3-(5-chloropyrimidin-2-yl)isoxazol-5-yl)-2-fluorophenyl)-3,6,6-trimethyl-1-((2,2,2-trifluoroethyl)imino)-3,6-dihydro-2H-1,4-thiazine 1-oxide 2,2,2-trifluoroacetate]: the IC50 in test [1] worked out at 37 nM.
